Laboratory results published in ChEMBL document CHEMBL2380196, “New anticancer active and selective phenylene-bisbenzothiazoles: synthesis, antiproliferative evaluation and DNA binding” (Eur J Med Chem, 2013).

How the values were obtained:
SK-BR-3 [1] = assay: Induction of apoptosis in human SKBR3 cells at 10 uM after 48 hrs using propidium iodide/Annexin-V staining by flow cytometry relative to control; format: functional
SK-BR-3 [2] = assay: Induction of apoptosis in human SKBR3 cells at 10 uM after 24 hrs using propidium iodide/Annexin-V staining by flow cytometry relative to control; format: functional
HeLa [3] = assay: Cell cycle arrest in human HeLa cells assessed as accumulation in G2/M phase at 10 uM after 48 hrs using propidium iodide staining by flow cytometry relative to control; format: functional
HeLa [4] = assay: Cell cycle arrest in human HeLa cells assessed as accumulation in S phase at 10 uM after 48 hrs using propidium iodide staining by flow cytometry relative to control; format: functional
HeLa [5] = assay: Cell cycle arrest in human HeLa cells assessed as accumulation in sub-G1 phase at 10 uM after 48 hrs using propidium iodide staining by flow cytometry relative to control; format: functional
HeLa [6] = assay: Cell cycle arrest in human HeLa cells assessed as accumulation in G2/M phase at 5 uM after 48 hrs using propidium iodide staining by flow cytometry relative to control; format: functional
HeLa [7] = assay: Cell cycle arrest in human HeLa cells assessed as accumulation in S phase at 5 uM after 48 hrs using propidium iodide staining by flow cytometry relative to control; format: functional
HeLa [8] = assay: Cell cycle arrest in human HeLa cells assessed as accumulation in G1 phase at 5 uM after 48 hrs using propidium iodide staining by flow cytometry relative to control; format: functional
HeLa [9] = assay: Cell cycle arrest in human HeLa cells assessed as accumulation in G2/M phase at 10 uM after 24 hrs using propidium iodide staining by flow cytometry relative to control; format: functional
HeLa [10] = assay: Cell cycle arrest in human HeLa cells assessed as accumulation in G1 phase at 10 uM after 24 hrs using propidium iodide staining by flow cytometry relative to control; format: functional
HeLa [11] = assay: Cell cycle arrest in human HeLa cells assessed as accumulation in sub-G1 phase at 10 uM after 24 hrs using propidium iodide staining by flow cytometry relative to control; format: functional
HeLa [12] = assay: Cell cycle arrest in human HeLa cells assessed as accumulation in G2/M phase at 5 uM after 24 hrs using propidium iodide staining by flow cytometry relative to control; format: functional
HeLa [13] = assay: Cell cycle arrest in human HeLa cells assessed as accumulation in sub-G1 phase at 5 uM after 24 hrs using propidium iodide staining by flow cytometry relative to control; format: functional
MIA PaCa-2 [14] = assay: Cell cycle arrest in human MIAPaCa2 cells assessed as accumulation in G2/M phase at 10 uM after 48 hrs using propidium iodide staining by flow cytometry relative to control; format: functional
MIA PaCa-2 [15] = assay: Cell cycle arrest in human MIAPaCa2 cells assessed as accumulation in S phase at 10 uM after 48 hrs using propidium iodide staining by flow cytometry relative to control; format: functional
MIA PaCa-2 [16] = assay: Cell cycle arrest in human MIAPaCa2 cells assessed as accumulation in sub-G1 phase at 10 uM after 48 hrs using propidium iodide staining by flow cytometry relative to control; format: functional
MIA PaCa-2 [17] = assay: Cell cycle arrest in human MIAPaCa2 cells assessed as accumulation in G2/M phase at 5 uM after 48 hrs using propidium iodide staining by flow cytometry relative to control; format: functional
MIA PaCa-2 [18] = assay: Cell cycle arrest in human MIAPaCa2 cells assessed as accumulation in S phase at 5 uM after 48 hrs using propidium iodide staining by flow cytometry relative to control; format: functional
MIA PaCa-2 [19] = assay: Cell cycle arrest in human MIAPaCa2 cells assessed as accumulation in G1 phase at 5 uM after 48 hrs using propidium iodide staining by flow cytometry relative to control; format: functional
MIA PaCa-2 [20] = assay: Cell cycle arrest in human MIAPaCa2 cells assessed as accumulation in G2/M phase at 10 uM after 24 hrs using propidium iodide staining by flow cytometry relative to control; format: functional
MIA PaCa-2 [21] = assay: Cell cycle arrest in human MIAPaCa2 cells assessed as accumulation in sub-G1 phase at 10 uM after 24 hrs using propidium iodide staining by flow cytometry relative to control; format: functional
MIA PaCa-2 [22] = assay: Cell cycle arrest in human MIAPaCa2 cells assessed as accumulation in S phase at 5 uM after 24 hrs using propidium iodide staining by flow cytometry relative to control; format: functional
SK-BR-3 [23] = assay: Cell cycle arrest in human SKBR3 cells assessed as accumulation in G2/M phase at 10 uM after 48 hrs using propidium iodide staining by flow cytometry relative to control; format: functional
SK-BR-3 [24] = assay: Cell cycle arrest in human SKBR3 cells assessed as accumulation in S phase at 10 uM after 48 hrs using propidium iodide staining by flow cytometry relative to control; format: functional
SK-BR-3 [25] = assay: Cell cycle arrest in human SKBR3 cells assessed as accumulation in G1 phase at 10 uM after 48 hrs using propidium iodide staining by flow cytometry relative to control; format: functional
SK-BR-3 [26] = assay: Cell cycle arrest in human SKBR3 cells assessed as accumulation in sub-G1 phase at 10 uM after 48 hrs using propidium iodide staining by flow cytometry relative to control; format: functional
SK-BR-3 [27] = assay: Cell cycle arrest in human SKBR3 cells assessed as accumulation in G2/M phase at 5 uM after 48 hrs using propidium iodide staining by flow cytometry relative to control; format: functional
SK-BR-3 [28] = assay: Cell cycle arrest in human SKBR3 cells assessed as accumulation in G1 phase at 5 uM after 48 hrs using propidium iodide staining by flow cytometry relative to control; format: functional
SK-BR-3 [29] = assay: Cell cycle arrest in human SKBR3 cells assessed as accumulation in sub-G1 phase at 5 uM after 48 hrs using propidium iodide staining by flow cytometry relative to control; format: functional
SK-BR-3 [30] = assay: Cell cycle arrest in human SKBR3 cells assessed as accumulation in G2/M phase at 10 uM after 24 hrs using propidium iodide staining by flow cytometry relative to control; format: functional
SK-BR-3 [31] = assay: Cell cycle arrest in human SKBR3 cells assessed as accumulation in G1 phase at 10 uM after 24 hrs using propidium iodide staining by flow cytometry relative to control; format: functional
SK-BR-3 [32] = assay: Cell cycle arrest in human SKBR3 cells assessed as accumulation in sub-G1 phase at 10 uM after 24 hrs using propidium iodide staining by flow cytometry relative to control; format: functional
SK-BR-3 [33] = assay: Cell cycle arrest in human SKBR3 cells assessed as accumulation in G2/M phase at 5 uM after 24 hrs using propidium iodide staining by flow cytometry relative to control; format: functional
SK-BR-3 [34] = assay: Cell cycle arrest in human SKBR3 cells assessed as accumulation in S phase at 5 uM after 24 hrs using propidium iodide staining by flow cytometry relative to control; format: functional
HeLa [35] = assay: Antiproliferative activity against human HeLa cells after 72 hrs by MTT assay; format: functional, cell-based; conditions: for CC50: read-out: LC50 (the source's name)
[36] = (§1) Antiproliferative activity against human WI38 cells after 72 hrs by MTT assay; format: cell-based, WI-38; conditions: human, WI-38 cells; read-out: LC50
WI-38 = assay: as §1; format: cell-based; conditions: Homo sapiens, WI-38, 72 h
SW-620 = assay: Antiproliferative activity against human SW620 cells after 72 hrs by MTT assay; format: functional, cell-based; conditions: SW-620, 72 h; for CC50: read-out: LC50 (the source's name)
SK-BR-3 [37] = assay: Antiproliferative activity against human SKBR3 cells after 72 hrs by MTT assay; format: functional, cell-based; conditions: SK-BR-3, 72 h; for CC50: read-out: LC50 (the source's name)
MCF7 = assay: Antiproliferative activity against human MCF7 cells after 72 hrs by MTT assay; format: functional, cell-based; conditions: MCF7, 72 h; for CC50: read-out: LC50 (the source's name)

Cl.Cl.c1cc(-c2nc3ccc(C4=NCCN4)cc3s2)cc(-c2nc3ccc(C4=NCCN4)cc3s2)c1
Activity (SK-BR-3 [1]): 75% | Activity (SK-BR-3 [2]): 8% | Activity (HeLa [3]): 13.2% | Activity (HeLa [4]): 71.4% | Activity (HeLa [5]): 15.5% | Activity (HeLa [6]): 17.2% | Activity (HeLa [7]): 39.3% | Activity (HeLa [8]): 47.5% | Activity (HeLa [9]): 2.1% | Activity (HeLa [10]): 31.7% | Activity (HeLa [11]): 12.5% | Activity (HeLa [12]): 24% | Activity (HeLa [13]): 14.4% | Activity (MIA PaCa-2 [14]): 8.6% | Activity (MIA PaCa-2 [15]): 50.8% | Activity (MIA PaCa-2 [16]): 9.1% | Activity (MIA PaCa-2 [17]): 17.1% | Activity (MIA PaCa-2 [18]): 30.8% | Activity (MIA PaCa-2 [19]): 52.1% | Activity (MIA PaCa-2 [20]): 21.3% | Activity (MIA PaCa-2 [21]): 8.1% | Activity (MIA PaCa-2 [22]): 33.6% | Activity (SK-BR-3 [23]): 11.1% | Activity (SK-BR-3 [24]): 67.8% | Activity (SK-BR-3 [25]): 22.1% | Activity (SK-BR-3 [26]): 12.5% | Activity (SK-BR-3 [27]): 21.1% | Activity (SK-BR-3 [28]): 36.2% | Activity (SK-BR-3 [29]): 21.6% | Activity (SK-BR-3 [30]): 17.8% | Activity (SK-BR-3 [31]): 28.7% | Activity (SK-BR-3 [32]): 23.1% | Activity (SK-BR-3 [33]): 4.2% | Activity (SK-BR-3 [34]): 58.9% | IC50 (HeLa [35]): 2.06 µM | CC50 (HeLa [35]): 7.38 µM | CC50 at 72 h [36]: 6.63 µM | IC50 (WI-38): 0.15 µM | IC50 (SW-620): 0.47 µM | CC50 (SW-620): 6.19 µM | IC50 (SK-BR-3 [37]): 0.04 µM | CC50 (SK-BR-3 [37]): 0.87 µM | IC50 (MCF7): > 100 µM | CC50 (MCF7): 5.3 µM

Cl.Cl.c1cc2nc(-c3ccc(-c4nc5ccc(C6=NCCN6)cc5s4)cc3)sc2cc1C1=NCCN1
Activity (SK-BR-3 [1]): 15% | Activity (SK-BR-3 [2]): 5% | Activity (HeLa [3]): 14.5% | Activity (HeLa [4]): 44% | Activity (HeLa [5]): 23.2% | Activity (HeLa [6]): 18.9% | Activity (HeLa [7]): 49.6% | Activity (HeLa [8]): 31.9% | Activity (HeLa [9]): 7.2% | Activity (HeLa [10]): 34.2% | Activity (HeLa [11]): 15.5% | Activity (HeLa [12]): 13.4% | Activity (HeLa [13]): 9.9% | Activity (MIA PaCa-2 [14]): 18.4% | Activity (MIA PaCa-2 [15]): 40.9% | Activity (MIA PaCa-2 [16]): 53.9% | Activity (MIA PaCa-2 [17]): 18.4% | Activity (MIA PaCa-2 [18]): 35.8% | Activity (MIA PaCa-2 [19]): 45.9% | Activity (MIA PaCa-2 [20]): 19% | Activity (MIA PaCa-2 [21]): 33.1% | Activity (MIA PaCa-2 [22]): 55% | Activity (SK-BR-3 [23]): 20.3% | Activity (SK-BR-3 [24]): 42.3% | Activity (SK-BR-3 [25]): 41.3% | Activity (SK-BR-3 [26]): 32.1% | Activity (SK-BR-3 [27]): 13.8% | Activity (SK-BR-3 [28]): 53.6% | Activity (SK-BR-3 [29]): 27.5% | Activity (SK-BR-3 [30]): 14.5% | Activity (SK-BR-3 [31]): 50.9% | Activity (SK-BR-3 [32]): 31.6% | Activity (SK-BR-3 [33]): 11.6% | Activity (SK-BR-3 [34]): 33.5% | IC50 (HeLa [35]): 7.75 µM | CC50 (HeLa [35]): 71.1 µM | CC50 at 72 h [36]: > 100 µM | IC50 (WI-38): > 100 µM | IC50 (SW-620): 7.65 µM | CC50 (SW-620): > 100 µM | IC50 (SK-BR-3 [37]): 1.18 µM | CC50 (SK-BR-3 [37]): 8.07 µM | IC50 (MCF7): 3.07 µM | CC50 (MCF7): > 100 µM
